From PubChem BioAssay (NCI) come the findings set out here.

Among the test systems are SK-MEL-2 melanoma; OVCAR-3 ovarian; ACHN renal; LOX IMVI melanoma; HT29 colon; HS 578T breast; SF-539 CNS; U251 CNS; NCI/ADR-RES ovarian; DU-145 prostate; COLO 205 colon; BT-549 breast; OVCAR-8 ovarian; SK-MEL-28 melanoma; CAKI-1 renal; RPMI-8226 leukemia; CCRF-CEM leukemia; HCT-15 colon.
Holding throughout (assay): growth of human tumour cells (NCI), 48 h

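96-well plates; 48 h exposure; 5 concentrations. Endpoints by linear interpolation between flanking doses. Not reached: highest tested concentration assigned. TGI is the concentration that stops growth completely.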 Some results are limits rather than exact numbers.

As for `COc1ccc(N2C(=O)CC(c3c[nH]c4ncccc34)C2=O)cc1` (stereo unspecified), the TGI with SK-MEL-2 melanoma was above 100 µM; in the assay on OVCAR-3 ovarian, 36.2 µM; in the assay with ACHN renal, 43.6 µM; in the assay with LOX IMVI melanoma, above 100 µM; with HT29 colon it was 40.5 µM; in the assay with HS 578T breast it was above 100 µM. For the same molecule, the TGI is above 65.3 µM in the assay with SF-539 CNS; above 100 µM in the assay with U251 CNS; above 79.1 µM with NCI/ADR-RES ovarian; above 100 µM with DU-145 prostate; 36.5 µM with COLO 205 colon; 37.2 µM with BT-549 breast. The TGI is 42.4 µM in the assay with OVCAR-8 ovarian; above 58.3 µM with SK-MEL-28 melanoma; 37.2 µM in the assay on CAKI-1 renal; above 100 µM in the assay with RPMI-8226 leukemia; 16.8 µM in the assay on CCRF-CEM leukemia; 59.3 µM in the assay on HCT-15 colon.
Regarding `C/C=C/[C@H](O[Si](C)(C)C(C)(C)C)[C@@H](O)/C=C/C(=O)OCC`, the TGI in the assay with SK-MEL-2 melanoma came out at 82 µM; in the assay on OVCAR-3 ovarian, 47.6 µM; with ACHN renal, 30.2 µM; in the assay with LOX IMVI melanoma it was 33.3 µM; in the assay with HT29 colon, 39.2 µM; in the assay with HS 578T breast, 79.5 µM. Also, the TGI is 52 µM in the assay on SF-539 CNS; 35.5 µM with U251 CNS; 76.8 µM with NCI/ADR-RES ovarian; above 100 µM in the assay with DU-145 prostate; 40.6 µM in the assay with COLO 205 colon; 65.4 µM with BT-549 breast. Moreover, the TGI with OVCAR-8 ovarian was 34.6 µM; in the assay with SK-MEL-28 melanoma, 32.4 µM; in the assay on CAKI-1 renal it was 34.2 µM; with RPMI-8226 leukemia it was 12.1 µM; in the assay on CCRF-CEM leukemia, 35.4 µM; with HCT-15 colon it was 27.7 µM.
Take `CCOC(=O)c1c(N2CCCC2)[nH]c(=O)c(C(c2cccs2)c2c(O)c(C(=O)OCC)c(N3CCCC3)[nH]c2=O)c1O`: the TGI in the assay with SK-MEL-2 melanoma, in the assay on OVCAR-3 ovarian, with ACHN renal, in the assay on LOX IMVI melanoma, in the assay with HT29 colon and in the assay on HS 578T breast was above 100 µM in each case. Besides, the TGI with SF-539 CNS, with U251 CNS, with NCI/ADR-RES ovarian, in the assay on DU-145 prostate, with COLO 205 colon and in the assay with BT-549 breast was above 100 µM in each case. Further, the TGI in the assay on OVCAR-8 ovarian, in the assay with SK-MEL-28 melanoma, in the assay on CAKI-1 renal, in the assay with RPMI-8226 leukemia, in the assay with CCRF-CEM leukemia and with HCT-15 colon was above 100 µM throughout.
`CCOC(=O)C(=O)C(CCC(=O)c1ccc2ccccc2c1O)C(=O)OCC` (stereo unspecified): the TGI with SK-MEL-2 melanoma, in the assay on OVCAR-3 ovarian, with ACHN renal, in the assay on LOX IMVI melanoma, in the assay on HT29 colon and in the assay with HS 578T breast was above 100 µM in each case. Besides, the TGI with SF-539 CNS, with U251 CNS, in the assay with NCI/ADR-RES ovarian, in the assay on DU-145 prostate, with COLO 205 colon and in the assay with BT-549 breast was above 100 µM in each case. For the same molecule, the TGI in the assay on OVCAR-8 ovarian, in the assay on SK-MEL-28 melanoma, in the assay on CAKI-1 renal, in the assay with RPMI-8226 leukemia, with CCRF-CEM leukemia and in the assay on HCT-15 colon was above 100 µM throughout.
On to `C/C(=N\Nc1nc2ccccc2s1)c1cc(C)ncn1`, for which the TGI is 23 µM in the assay with SK-MEL-2 melanoma; above 25 µM with OVCAR-3 ovarian; above 32 µM in the assay on ACHN renal; above 100 µM in the assay with LOX IMVI melanoma; above 34.6 µM with HT29 colon; 12.7 µM with HS 578T breast. Further, the TGI is 35 µM in the assay on SF-539 CNS; above 49.6 µM with U251 CNS; 4.91 µM with NCI/ADR-RES ovarian; 45.1 µM with DU-145 prostate; 4.71 µM in the assay with COLO 205 colon; above 46.3 µM in the assay on BT-549 breast. Further, the TGI in the assay with OVCAR-8 ovarian was 4.01 µM; with SK-MEL-28 melanoma, above 55.8 µM; in the assay with CAKI-1 renal, 6.63 µM; in the assay with RPMI-8226 leukemia it was above 21 µM; with CCRF-CEM leukemia, 4.2 µM; with HCT-15 colon, 13 µM.
As for `COC(=O)c1ccc(NCc2cc(O)ccc2O)cc1`, the TGI in the assay with SK-MEL-2 melanoma came to 36.1 µM; in the assay with OVCAR-3 ovarian, 27.6 µM; with ACHN renal, 24 µM; in the assay on LOX IMVI melanoma, 26.1 µM; in the assay on HT29 colon, 50.7 µM; in the assay on HS 578T breast, 18.5 µM. Further, the TGI in the assay on SF-539 CNS was found to be 13.5 µM; in the assay on U251 CNS, 24.5 µM; with NCI/ADR-RES ovarian it was 36.9 µM; with DU-145 prostate it was 24.8 µM; with COLO 205 colon, 29 µM; in the assay with BT-549 breast it was 2.63 µM. Moreover, the TGI with OVCAR-8 ovarian was 40.1 µM; with SK-MEL-28 melanoma, 34.8 µM; in the assay on CAKI-1 renal, 37.4 µM; in the assay on RPMI-8226 leukemia, 34.7 µM; with CCRF-CEM leukemia, 10.8 µM; in the assay on HCT-15 colon, 19.5 µM.
As to `CC1=NN(C(=O)CC(=O)Nc2cccc(Cl)c2)C(=O)C1N=Nc1ccc(C(=O)O)cc1` (stereo unspecified), the TGI with SK-MEL-2 melanoma, in the assay with OVCAR-3 ovarian, in the assay on ACHN renal, with LOX IMVI melanoma, in the assay on HT29 colon and in the assay on HS 578T breast was above 100 µM throughout. The TGI in the assay with SF-539 CNS, with U251 CNS, in the assay on NCI/ADR-RES ovarian, with DU-145 prostate, with COLO 205 colon and in the assay on BT-549 breast was above 100 µM in each case. The TGI in the assay with OVCAR-8 ovarian, with SK-MEL-28 melanoma, in the assay on CAKI-1 renal, in the assay on RPMI-8226 leukemia, in the assay with CCRF-CEM leukemia and in the assay with HCT-15 colon was above 100 µM each time.
